From patent US7705030B2, “Amino-5-(5-membered)hetero-arylimidazolone compounds and the use thereof for β-secretase modulation” (Wyeth LLC, priority 2005, dated 2010)

Columns and labels:
[1] = target: human BACE1 (Homo sapiens, UniProt P56817); assay: Fluorescent kinetic assay: Evaluation of BACE-1 Binding Affinity of Test Compounds; type: biochemical; conditions: 10 nM enzyme, 25 μM substrate WABC-6, 50 mM Na-Acetate pH 4.5, room temperature
Method: Evaluation of BACE-1 Binding Affinity of Test Compounds
Fluorescent Kinetic Assays
Final Assay Conditions: 10 nM human BACE1 (or 10 nM Murine BACE1, 1.5 nM human BACE2), 25 μM substrate (WABC-6, MW 1549.6, from AnaSpec), Buffer: 50 mM Na-Acetate, pH 4.5, 0.05% CHAPS, 25% PBS, room temperature. Na-Acetate was from Aldrich, Cat.# 24, 124-5, CHAPS was from Research Organics, Cat. # 1304C 1×, PBS was from Mediatech (Cellgro), Cat# 21-031-CV, peptide substrate Abz[…]pa was from AnaSpec, Peptide Name: WABC-6 Determination of stock substrate (Abz[…]pa) concentration: ˜25 mM stock solution is made in DMSO using the peptide weight and MW, and diluted to ˜25 μM (1:1000) in 1×PBS. Concentration is determined by absorbance at 354 nm using an extinction coefficient ε of 18172 M^−1 cm^−1, the concentration of stock substrate is corrected, and the substrate stock stored in small aliquots in −80° C. [Substrate Stock]=ABS^354 nm*10^6/18172 (in […]) The extinction coefficient ε^354 nm was adapted from TACE peptide substrate, which had the same quencher-fluorophore pair.
Determination of Stock Enzyme Concentration: the stock concentration of each enzyme is determined by absorbance at 280 nm using an ε of 64150 M^−1 cm^−1 for hBACE1 and MuBACE1, 62870 M^−1 cm^−1 for hBACE2 in 6 M Guanidinium Hydrochloride (from Research Organics, Cat. # 5134G-2), pH ˜6. The extinction coefficient ε^280 nm for each enzyme was calculated based on known amino acid composition and published extinction coefficients for Trp ([…]) and Tyr ([…]) residues (Anal. Biochem. 182, 319-326).
Dilution and mixing steps: total reaction volume: 100 μL
2× inhibitor dilutions in buffer A(66.7 mM Na-Acetate, pH 4.5, 0.0667% CHAPS) were prepared,
4× enzyme dilution in buffer A(66.7 mM Na-Acetate, pH 4.5, 0.0667% CHAPS) were prepared,
100 μM substrate dilution in 1×PBS was prepared, and
50 μL 2× Inhibitor, 25 μL 100 μM substrate are added to each well of 96-well plate (from DYNEX Technologies, VWR #: 11311-046), immediately followed by 25 μL 4× enzyme (added to the inhibitor and substrate mix), and the fluorescence readings are initiated.
Fluorescence Readings: Readings at λex 320 nm and λem 420 nm are taken every 40 sec for 30 min at room temperature and the linear slope for substrate cleavage rate (vi) determined.
Testing at least 10 different inhibitor concentrations is preferred.

Chain of human BACE1 (P56817 46-501): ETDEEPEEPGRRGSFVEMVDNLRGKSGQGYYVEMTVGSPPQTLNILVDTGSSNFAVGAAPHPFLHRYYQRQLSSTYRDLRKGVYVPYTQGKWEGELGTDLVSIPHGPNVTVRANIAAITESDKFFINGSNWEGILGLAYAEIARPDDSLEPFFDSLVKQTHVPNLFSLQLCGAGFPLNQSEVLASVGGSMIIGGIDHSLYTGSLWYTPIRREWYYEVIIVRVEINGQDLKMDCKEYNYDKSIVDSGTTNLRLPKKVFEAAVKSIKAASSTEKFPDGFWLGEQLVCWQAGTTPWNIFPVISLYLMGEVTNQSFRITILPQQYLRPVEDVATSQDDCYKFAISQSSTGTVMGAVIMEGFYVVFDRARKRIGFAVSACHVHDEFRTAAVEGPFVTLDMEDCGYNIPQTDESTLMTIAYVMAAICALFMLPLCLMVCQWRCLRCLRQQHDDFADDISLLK

SMILES	IC50 [1]	melting point
CN1C(=O)C(c2cc[nH]c2)(c2cccc(O)c2)N=C1N (stereo not drawn) [Example 59, 2-amino-5-(3-hydroxyphenyl)-5-(1H-pyrrol-3-yl)-3-methyl-3,5-dihydro-4H-imidazol-4-one]	> 1000 nM	142 to 145 °C
CN1C(=O)C(c2ccsc2)(c2cccc(-c3cccnc3F)c2)N=C1N (stereo not drawn) [Example 34]	10 to 100 nM	213 °C
CN1C(=O)C(c2ccc(OC(F)F)cc2)(c2cnn(CC(F)(F)F)c2)N=C1N (stereo not drawn) [Example 74]	> 1000 nM	70 to 72 °C
CCn1cc(C2(c3ccc(F)c(-c4cccnc4F)c3)N=C(N)N(C)C2=O)cn1 (stereo not drawn) [Example 10, 2-Amino-5-(1-ethyl-1H-pyrazol-4-yl)-5-[4-fluoro-3-(2-fluoropyridin-3-yl)phenyl]-3-methyl-3,5-dihydro-4H-imidazol-4-one]	10 to 100 nM	84 to 85 °C
Cc1c(C2(c3cccc(-c4cccnc4F)c3)N=C(N)N(C)C2=O)cnn1CC(F)(F)F (stereo not drawn) [Example 2, 2-Amino-5-[3-(2-fluoropyridin-3-yl)phenyl]-3-methyl-5-[5-methyl-1-(2,2,2-trifluoroethyl)-1H-pyrazol-4-yl]-3,5-dihydro-4H-imidazol-4-one]	110 to 1000 nM	235 to 238 °C
CN1C(=O)C(c2ccsc2)(c2cccc(OCC3CCCCC3)c2)N=C1N (stereo not drawn) [Example 147]	> 1000 nM	88 to 90 °C
CCn1cc(C2(c3cccc(-c4cccnc4F)c3)N=C(N)N(C)C2=O)cc1C(=O)NC(C)C (stereo not drawn) [Example 161]	110 to 1000 nM	121 to 123 °C
COc1ccc(F)cc1-c1cccc(C2(c3cnn(CC(F)(F)F)c3)N=C(N)N(C)C2=O)c1 (stereo not drawn) [Example 85]	110 to 1000 nM	104 to 106 °C
CN1C(=O)C(c2cccc(-c3cncnc3)c2)(c2cscn2)N=C1N (stereo not drawn) [Example 41, 2-Amino-3-methyl-5-(3-pyrimidin-5-ylphenyl)-5-(1,3-thiazol-4-yl)-3,5-dihydro-4H-imidazol-4-one]	110 to 1000 nM	234 to 237 °C
CCn1cc(C2(c3cccc(-c4cccnc4F)c3)N=C(N)N(C)C2=O)cc1CO (stereo not drawn) [Example 239, 2-Amino-5-[1-ethyl-5-(hydroxymethyl)-1H-pyrrol-3-yl]-5-[3-(2-fluoropyridin-3-yl)phenyl]-3-methyl-3,5-dihydro-4H-imidazol-4-one]	10 to 100 nM	170 to 172 °C
CN1C(=O)C(c2ccc(F)c(-c3cccnc3F)c2)(c2cnn(CC(F)(F)F)c2)N=C1N (stereo not drawn) [Example 7, 2-Amino-5-[4-fluoro-3-(2-fluoropyridin-3-yl)phenyl]-3-methyl-5-[1-(2,2,2-trifluoroethyl)-1H-pyrazol-4-yl]-3,5-dihydro-4H-imidazol-4-one]	110 to 1000 nM	> 225 °C
COC(=O)c1cc(C2(c3ccc(F)c(-c4cccnc4F)c3)N=C(N)N(C)C2=O)cn1CCF (stereo not drawn) [Example 122]	10 to 100 nM	127 to 128 °C
CN1C(=O)C(c2cccc(-c3cc(C#N)ccc3F)c2)(c2cnn(CC(F)(F)F)c2)N=C1N (stereo not drawn) [Example 86]	110 to 1000 nM	118 to 120 °C
CCC(=O)Nc1cccc(C2(c3cc(C(=O)CC)n(CC)c3)N=C(N)N(C)C2=O)c1 (stereo not drawn) [Example 130, N-{3-[2-amino-4-(1-ethyl-5-propionyl-1H-pyrrol-3-yl)-1-methyl-5-oxo-4,5-dihydro-1H-imidazol-4-yl]-phenyl}-propionamide]	110 to 1000 nM	120 to 141 °C
CN1C(=O)C(c2cccc(OCC3CC3)c2)(c2cnn(CCF)c2)N=C1N (stereo not drawn) [Example 70, 2-amino-5-[3-(cyclopropylmethoxy)phenyl]-5-[1-(2-fluoroethyl)-1H-pyrazol-4-yl]-3-methyl-3,5-dihydro-4H-imidazol-4-one]	110 to 1000 nM	70 to 72 °C
CN1C(=O)C(c2cc[nH]c2)(c2cccc(OCc3ccccc3)c2)N=C1N (stereo not drawn) [Example 58, 2-amino-5-(3-benzyloxyphenyl)-5-(1H-pyrrol-3-yl)-3-methyl-3,5-dihydro-4H-imidazol-4-one]	> 1000 nM	98 to 100 °C
CCC(=O)c1cc(C2(c3cccc(-c4cncnc4)c3)N=C(N)N(C)C2=O)cs1 (stereo not drawn) [Example 116, 2-Amino-3-methyl-5-(5-propionyl-thiophen-3-yl)-5-(3-pyrimidin-5-yl-phenyl)-3,5-dihydro-imidazol-4-one]	10 to 100 nM	167 to 172 °C

SMILES	IC50 [1]	melting point
CN1C(=O)C(c2cccc(OCc3ccccc3)c2)(c2cnn(CC(F)(F)F)c2)N=C1N (stereo not drawn) [Example 92, 2-amino-5-[3-(benzyloxy)phenyl]-3-methyl-5-[1-(2,2,2-trifluoroethyl)-1H-pyrazol-4-yl]-3,5-dihydro-4H-imidazol-4-one]	> 1000 nM	85 to 87 °C
COc1cncc(-c2cccc(C3(c4ccsc4)N=C(N)N(C)C3=O)c2)c1 (stereo not drawn) [Example 37]	10 to 100 nM	197 °C
CCC(=O)c1cc(C2(c3cccc(-c4cccnc4F)c3)N=C(N)N(C)C2=O)cn1Cc1ccccc1 (stereo not drawn) [Example 181]	10 to 100 nM	93 to 96 °C
CC(C)CCOc1cccc(C2(c3ccsc3)N=C(N)N(C)C2=O)c1 (stereo not drawn) [Example 144]	110 to 1000 nM	84 to 88 °C
COC(=O)c1cc([C@]2(c3ccc(F)c(-c4cncnc4)c3)N=C(N)N(C)C2=O)cn1CCF [Example 119A, Methyl 4-[(4S)2-Amino-4-(4-fluoro-3-pyrimidinyl-5-phenyl)-1-methyl-5-oxo-4,5-dihydro-1H-imidazol-4-yl]-1-(2-fluoroethyl)-1H-pyrrole-2-carboxylate]	10 to 100 nM	186 to 188 °C
CCn1cc(C2(c3cccc(-c4cccnc4F)c3)N=C(N)N(C)C2=O)cc1C(=O)c1ccccc1 (stereo not drawn) [Example 170]	10 to 100 nM	104 to 106 °C
CCCC(=O)Nc1cccc(C2(c3cc(C(=O)CC)n(CC)c3)N=C(N)N(C)C2=O)c1 (stereo not drawn) [Example 129, N-{3-[2-amino-4-(1-ethyl-5-propionyl-1H-pyrrol-3-yl)-1-methyl-5-oxo-4,5-dihydro-1H-imidazol-4-yl]-phenyl}-butyramide]	110 to 1000 nM	201 to 205 °C
CCC(=O)c1cc(C2(c3cccc(NC(=O)COC)c3)N=C(N)N(C)C2=O)cn1CC (stereo not drawn) [Example 131, N-{3-[2-amino-4-(1-ethyl-5-propionyl-1H-pyrrol-3-yl)-1-methyl-5-oxo-4,5-dihydro-1H-imidazol-4-yl]-phenyl}-2-methoxy-acetamide]	10 to 100 nM	95 to 115 °C
CCOc1ccc(C2(c3cc(C(=O)NC)n(CC)c3)N=C(N)N(C)C2=O)cc1-c1cccnc1F (stereo not drawn) [Example 128]	> 1000 nM	148 to 150 °C
CCC(=O)c1cc(C2(c3cccc(-c4cccnc4F)c3)N=C(N)N(C)C2=O)cn1CC(F)(F)F (stereo not drawn) [Example 200, 2-Amino-5-[5-propionyl-1-(2,2,2-trifluoroethyl)-1H-pyrrol-3-yl]-5-[3-(2-fluoropyridin-3-yl)phenyl]-3-methyl-3,5-dihydro-4H-imidazol-4-one]	10 to 100 nM	108 to 110 °C
CCn1cc(C2(c3cccc(-c4cccnc4F)c3)N=C(N)N(C)C2=O)cc1C(=O)C1CCCCC1 (stereo not drawn) [Example 171]	10 to 100 nM	94 to 100 °C
CC(C)CCn1cc(C2(c3cccc(-c4cccnc4F)c3)N=C(N)N(C)C2=O)cn1 (stereo not drawn) [Example 102]	10 to 100 nM	86 to 90 °C
COC(=O)c1cc(C2(c3cccc(-c4ccc(F)c(F)c4)c3)N=C(N)N(C)C2=O)cn1CCF (stereo not drawn) [Example 198]	10 to 100 nM	125 to 128 °C
CCn1cc(C2(c3ccc(F)c(-c4cccnc4F)c3)N=C(N)N(C)C2=O)cc1C(=O)OC (stereo not drawn) [Example 123]	10 to 100 nM	113 to 115 °C
CCC(=O)c1cc(C2(c3cccc(-c4cccc(C#N)c4)c3)N=C(N)N(C)C2=O)cn1CC(F)(F)F (stereo not drawn) [Example 206]	10 to 100 nM	112 to 114 °C
CCC(=O)c1cc(C2(c3cccc(-c4cccnc4F)c3)N=C(N)N(C)C2=O)cn1CCCF (stereo not drawn) [Example 152]	10 to 100 nM	105 °C
